# Measured values: PubChem BioAssay AID743396 (Broad Institute, 2014)
# Activity calls are given as the source filed them.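 How the source made its calls: active means fitted curve reaches a 40% rise in fluorescent cells at or below the top valid dose; inactive means opposite-direction effect, or the rest.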
# Assay: autofluorescent compounds in non-GFP fibroblasts, dose response, artefact control for X-chromosome reactivation project, imaging, mTEFS fibroblasts, cherry-pick (AID 743396);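 further: raw share of Hoechst-counted cells scored GFP positive without control normalization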
# Details: mTEFS fibroblasts autofluorescence, GFP-channel imaging, 3 days; at 19.5 µM (top of the series)
row,Compound,% fluorescent cells increase
1,O=C(c1cccc2ccccc12)C1CCCN(Cc2ccon2)C1 (stereo unspecified),0% (inactive)

# Same assay, conditions: mTEFS fibroblasts autofluorescence, GFP-channel imaging, 3 days; at 19.5 µM (top of the series); cells pretreated with 5-aza-dC
row,Compound,% fluorescent cells increase
1,O=C(NC1=C(NC2CCS(=O)(=O)C2)C(=O)c2ccccc2C1=O)c1ccccc1 (stereo unspecified),0% (inactive)
2,Cc1c(/C=N\NC(=O)c2cc3ccccc3o2)c2ccccc2n1C,0% (inactive)
3,CC(=O)Nc1sc(N/N=C/c2ccc(N(C)C)cc2)nc1-c1ccc(C)cc1,-0.004% (inactive)
4,CC1CC(C)CN(C(=O)CSCC(=O)Nc2nc(-c3cccs3)cs2)C1 (stereo unspecified),0% (inactive)
5,O=C(Nc1cccc(S(=O)(=O)NC2=NCCC2)c1)C1CC(=O)N(c2ccc3c(c2)OCCO3)C1 (stereo unspecified),-0.007% (inactive)
6,O=C(NNC(=O)c1ccccc1Cl)c1ccccc1Cl,0.057% (inactive)
7,O=[N+]([O-])/C=C/c1ccc2c(ccn2Cc2ccccc2)c1,0% (inactive)
8,Cc1ccccc1NC(=O)c1c(C)[nH]c(=S)c(C#N)c1-c1ccc(Cl)cc1,0.031% (inactive)
9,C[C@@H]1CCCCO[C@@H](CN(C)C(=O)Nc2ccc(C(F)(F)F)cc2)[C@@H](C)CN([C@H](C)CO)C(=O)c2cc(NS(=O)(=O)c3ccc(F)cc3)ccc2O1,-0.166% (inactive)
10,Cc1ccc(NC(=O)COc2ccc(-c3nnco3)cc2)cc1S(=O)(=O)N1CCOCC1,0.01% (inactive)
11,Cc1noc(C)c1S(=O)(=O)Nc1ccc2c(c1)C(=O)N([C@H](C)CO)C[C@H](C)[C@H](CN(C)C(=O)Nc1ccc(F)cc1)OCCCC[C@H](C)O2,0% (inactive)
12,COc1ccc2c(c1)c(/C=N/Nc1nc3ccccc3[nH]1)c(C)n2C,3.71% (inactive)
13,COc1ccccc1OCCOc1ccc(/C=C2\C(=N)N3N=C(S(C)(=O)=O)SC3=NC2=O)cc1,0% (inactive)
14,Cc1cc(N)ncc1[N+](=O)[O-],0.218% (inactive)
15,Cc1ccc(S(=O)(=O)N(C)C[C@H]2OCCCC[C@@H](C)Oc3ccc(NC(=O)Nc4c(C)noc4C)cc3C(=O)N([C@H](C)CO)C[C@@H]2C)cc1,0.012% (inactive)
16,COCCN(C(=S)Nc1cccc(C)c1)C(C)c1cccnc1 (stereo unspecified),-0.004% (inactive)
17,COc1cccc2cc(C(=O)N(Cc3cccs3)CC3CCCO3)c(=O)oc12 (stereo unspecified),0.013% (inactive)
18,N#CC(C#N)=C1C=CC=CN1/C(=C\c1ccco1)C(=O)c1ccc(Br)cc1,0% (inactive)
19,CN(C)C(=O)C[C@@H]1C=C[C@H](NS(=O)(=O)c2ccccc2)[C@@H](CO)O1,0% (inactive)
20,COc1ccc(CNC(=O)c2ccc(-c3cnn(C)c3)c3ccoc23)cc1OC,1.28% (inactive)
21,N/C(=N\OC(=O)C12CC3CC(CC(C3)C1)C2)c1ccncc1,-0.004% (inactive)
22,C=CCn1c(=S)[nH]c2scc(-c3ccco3)c2c1=O,0% (inactive)
23,O=c1c(Cl)c(Cl)cnn1Cc1nnc(-c2ccccc2Br)o1,-0.006% (inactive)
24,COc1ccc(CN(C)C[C@H]2OCCCC[C@@H](C)Oc3ccc(NC(=O)Nc4ccc(F)cc4)cc3C(=O)N([C@@H](C)CO)C[C@H]2C)cc1,0% (inactive)
25,CCC(=O)N1CC(=O)N2[C@@H](CO)[C@@H](c3ccc(-c4ccccc4F)cc3)[C@@H]2C1,0% (inactive)
26,O=C(CCn1nc(-c2ccc(Cl)cc2)c2ccccc2c1=O)NN1CCOCC1,0.116% (inactive)
27,COc1ccccc1-c1cc(C(=O)N2CCCc3ccccc32)no1,0.006% (inactive)

row,Compound,% fluorescent cells increase
1,CCOc1cccc(/C=N/NC(=S)Nc2cc(S(=O)(=O)N3CCOCC3)ccc2N2CCOCC2)c1O,0% (inactive)
2,Cc1cccc(NC(=O)Cn2cnc3c(oc4nc5c(cc43)COC(C)(C)C5)c2=O)c1,2.35% (inactive)
3,c1ccc(CCNc2nc(-c3ccccn3)nc3ccccc23)cc1,0% (inactive)
4,COc1cc(/C=C/C(=O)c2ccc([N+](=O)[O-])o2)ccc1O,5.15% (inactive)
5,COc1ccc(S(=O)(=O)Nc2ccc3c(c2)C(=O)N([C@@H](C)CO)C[C@H](C)[C@H](CN(C)C(=O)CCCN(C)C)OCCCC[C@H](C)O3)cc1,0.13% (inactive)
6,COCCNC(=S)N(Cc1cccnc1)Cc1ccc(OC)c(OC)c1,1.33% (inactive)
7,Cc1cccc(NCc2ccc(O)c3ncccc23)c1C,0.074% (inactive)
8,Cc1ccc(O)c(N=Nc2ccc(S(=O)(=O)N3CCCC3)cc2)c1,0% (inactive)
9,COc1ccc(S(=O)(=O)N(C)C[C@H]2Oc3ccc(NS(=O)(=O)c4ccc(F)cc4)cc3CC(=O)N([C@@H](C)CO)C[C@@H]2C)cc1,0% (inactive)
10,O=C(C[C@H]1CC[C@H]2[C@@H](COC[C@@H](O)CN2C(=O)Nc2ccccc2)O1)NCCc1ccncc1,0.044% (inactive)
11,Cc1cc(/C=C2\SC(=S)N(Cc3ccco3)C2=O)c(C)n1-c1ccccc1,0.981% (inactive)
12,C=CCN(CC(O)c1cccc([N+](=O)[O-])c1)C(C)CCc1ccccc1 (stereo unspecified),1.4% (inactive)
13,COc1cc(C(=O)NC(=S)Nc2cccc3nc(C)ccc23)cc(OC)c1OC,0.128% (inactive)
14,COc1ccc(-n2ncc(Cl)c(Cl)c2=O)cc1,0% (inactive)
15,Brc1cccc(CNCC2CCCO2)c1 (stereo unspecified),0.009% (inactive)
16,Cc1ccc(OCCN2CCN(CC(O)Cn3c4ccccc4c4ccccc43)CC2)cc1 (stereo unspecified),3.56% (inactive)
17,O=C(Nc1ccccc1)N1C[C@@H]2[C@H](c3ccccc31)[C@H](CO)N2C(=O)c1ccccc1F,0.041% (inactive)
18,CCCOc1ccc(C(=O)Nc2ccc(CN3CCOCC3)cc2)cc1,0% (inactive)
19,CC(C)CC(=O)Nc1c2c(nn1-c1ccc(F)cc1)CSC2,0.007% (inactive)
20,CCOC(=O)c1ccc(NC(=O)c2ccnn2C)cc1,0% (inactive)
21,O=C1N[C@H](Cc2ccccc2)COCc2cn(nn2)CC[C@@H]1Cc1ccccc1,0.024% (inactive)
22,Cc1ccc(Cn2ccsc2=NC(=O)CCl)cc1,0% (inactive)
23,CN(C)CCN(Cc1ccc(Cl)cc1)c1ccccn1,-0.004% (inactive)
24,O=C(N/N=C/c1ccc(Br)s1)c1ccc([N+](=O)[O-])cc1,-0.007% (inactive)
25,Cc1ccc(Cl)cc1NC(=O)CCC(=O)O,-0.002% (inactive)
26,Oc1cccc(/C=N/NC(=S)NCCN2CCOCC2)c1O,0% (inactive)
27,CCCC(=O)OCCNc1cc(Sc2nccn2C)c2nonc2c1[N+](=O)[O-],0% (inactive)

row,Compound,% fluorescent cells increase
1,CN(c1ccccc1)S(=O)(=O)c1ccc(C(=O)NCC(c2ccco2)N2CCCCC2)cc1 (stereo unspecified),6.89% (inactive)
2,CC=Cc1ccc2n(c1=O)C[C@@H]1[C@@H](CO)[C@H](C(=O)NCCCN(C)C)[C@H]2N1C(=O)c1ccccc1F (mixture of isomers),0.025% (inactive)
3,COc1ccc(NC(=O)C(=O)NCCC2CCCCN2S(=O)(=O)c2cccs2)cc1 (stereo unspecified),2.33% (inactive)
4,Cc1ccc(S(=O)(=O)Nc2ccc3c(c2)C(=O)N([C@H](C)CO)C[C@@H](C)[C@@H](CN(C)Cc2ccc(Cl)c(Cl)c2)OCCCC[C@H](C)O3)cc1,8.98% (inactive)
5,Cc1nn(-c2ccccc2)c(N)c1N=O,0% (inactive)
6,CC(C)OC(=O)CC(=O)CSc1nc(-c2ccc(F)cc2)cc(-c2ccccc2)c1C#N,0.594% (inactive)
7,Cc1c(Nc2cc(Cl)c3nonc3c2[N+](=O)[O-])c(=O)n(-c2ccccc2)n1C,-0.007% (inactive)
8,CCOCCCNC(=O)/C(C#N)=C/c1ccc([N+](=O)[O-])o1,9.9% (inactive)
9,O=C(c1ccc(Br)cc1)c1cc([N+](=O)[O-])ccc1N1CCOCC1,4.03% (inactive)
10,COc1cccc(CNC(=O)c2cc(S(=O)(=O)N3CCOCC3)cn2C)c1,0.274% (inactive)
11,COc1ccc2nc(SCC(=O)Nc3ccccc3OC)[nH]c2c1,0.385% (inactive)
12,C#Cc1cc(N2CCN(C(=O)c3ccoc3)CC2)n2nc(-c3cccc(Cl)c3)cc2n1,7.21% (inactive)
13,C/C=C/Cn1c(SCCCc2ccccc2)nc2c1c(=O)[nH]c(=O)n2C,-0.004% (inactive)
14,Cc1nn(-c2ccccc2)c2ncc(C(=O)c3cc(Cl)ccc3O)cc12,0% (inactive)
15,O=C1C=CC(=O)C(CNc2ccc(C(=O)OCc3ccccc3)cc2)=C1,0% (inactive)
16,Cc1ccsc1C1Nc2ccccc2-c2nc3ccccc3n21 (stereo unspecified),0.699% (inactive)
17,O=c1c2cc(-c3ccccc3)sc2nc2n1N=C(c1ccccc1)CS2,1.14% (inactive)
18,COc1cccc(NC(=O)N(C)C[C@@H]2Oc3cc(Br)ccc3S(=O)(=O)N([C@@H](C)CO)C[C@H]2C)c1,0.017% (inactive)
19,O=c1[nH]cnc2c1ncn2[C@H]1CC[C@@H](CO)O1,0.722% (inactive)
20,CC(=O)Nc1ccc(N2Cc3ccccc3C2)cc1,0.093% (inactive)
21,[N-]=[N+]=CC(=O)C(O)(c1ccccc1)C(Cl)c1ccccc1 (stereo unspecified),-0.007% (inactive)
22,C[C@@H]1CCCCO[C@H](CN(C)Cc2ccc3c(c2)OCO3)[C@@H](C)CN([C@H](C)CO)C(=O)c2cc(NS(=O)(=O)c3ccc(F)cc3)ccc2O1,0.175% (inactive)
23,O=C(/C=C/Sc1ccc(C(F)(F)F)cn1)c1ccccc1,-0.007% (inactive)
24,COc1ccc(-n2nc(C#N)c(Cl)cc2=O)cc1,-0.006% (inactive)
25,CCSc1nnc(NC(=O)c2cc(OC)c(OC)c(OC)c2)s1,0% (inactive)

# Same assay, conditions: mTEFS fibroblasts autofluorescence, GFP-channel imaging, 3 days; at 21 µM (top of the series); cells pretreated with 5-aza-dC
row,Compound,% fluorescent cells increase
1,Cc1cccc(CN(C)C[C@@H]2Oc3ncc(C#Cc4ccccc4)cc3C(=O)N([C@H](C)CO)C[C@@H]2C)c1,0% (inactive)
